From patent publication US11944627B2, “Methods for treating hematological malignancies and Ewing's sarcoma” (KURA ONCOLOGY, INC., priority 2017, dated 2024)

System: MLL-AF9 BMC
Assay: Cell proliferation assay, MLL-AF9 bone marrow cells
Assay type: cell-based, murine
Conditions: Mus musculus
Description: The ability of a compound of the present disclosure to inhibit the growth of selected cells was tested using a cell viability assay, such as the Promega CellTiter-Glo® Luminescent Cell Viability Assay (Promega Technical Bulletin, 2015, “CellTiter-Glo® Luminescent Cell Viability Assay”: 1-15, herein incorporated by reference in its entirety) or MTT cell proliferation assay (ATCC® 30-1010K) or cell counting. Compounds of the present disclosure can be tested in both acute myeloid leukemia cell lines or Ewing's sarcoma cell lines and control cell lines without the genetic abnormality or mutation being investigated (e.g., K562, REH, U937, KG-1, and/or HL-60). Selected cells can include, but are not limited to, cells such as human leukemia cell, acute myeloid leukemia cell, Ewing's sarcoma cell (e.g., SK-NEP-1, EW5, EW8, TC-71, TC-106, CHLA258, CHLA-9, CHLA-10, SK-ES-1, Hs 822.T, A-673, A-4573, Hs 863.T, RD-ES, CHLA-25, CHLA-32, CHLA-99, COG-E-352, TC-32, SK-N-MC), VCaP, LNCaP, 22RV1, DU145, LNCaP-AR, MV4;11, KOPN-8, ML-2, MOLM-13, RS4;11, SEM, bone marrow cells (BMCs), myeloblast cell, lymphoblast cell, NUP98 gene fusion cell (e.g., NUP98-PHF23 cell), NUP98-PHF23 (NP23) myeloblast cell (e.g., 961C), NUP98-PHF23 (NP23) lymphoblast cell (e.g., 748T, 106A), cell with an NPM1 mutation (e.g., OCI-AML3), cell without an NPM1 mutation, cell with a DNMT3A mutation (e.g., OCI-AML3, OCI-AML2, SET2), cell without a DNMT3A mutation, cell with a FLT3 mutation, cell without a FLT3 mutation, cell with an IDH1 mutation, cell without an IDH1 mutation, cell with an IDH2 mutation, cell without an IDH2 mutation, cell with a mixed lineage leukemia (MLL) gene amplification (e.g., UoC-M1, 2L1), cell without a mixed lineage leukemia (MLL) gene amplification, MLL-AF9, MLL-AF4, MLL-ENL, HM-2, E2A-HLF, REH, U937, HL-60, NB4, K562, KG-1, and OCI-AML2 cells. Cells were plated at relevant concentrations, for example about 1×10^5-2×10^5 cells per well in a 96-well plate. A compound of the present disclosure was added at a concentration up to about 2 μM with seven or eight, 2-fold serial dilutions for each compound. Cells were incubated at 37° C. for a period of time, for example, 72 hours, then cells in the control wells were counted. Media was changed to restore viable cell numbers to the original concentration, and compounds were re-supplied. Proliferation was measured about 72 hours later or about 96 hours later using Promega CellTiter-Glo® reagents or MTT reagents, as per kit instructions.

Row | Compound | GI50 [nM]
1 | Cc1c(CN2CCC(Nc3ncnc4sc(CC(F)(F)F)cc34)CC2)ccc2c1cc(C#N)n2C[C@@H](C)N1CCN(S(C)(=O)=O)CC1 [Compound I-9] | 250 to 1000
2 | Cc1c(CN2CCC(Nc3ncnc4sc(CC(F)(F)F)cc34)CC2)ccc2c1cc(C#N)n2C[C@H](C)N1CCN(S(C)(=O)=O)CC1 [Compound I-10] | 10 to 50
3 | Cc1c(CN2CCC(Nc3ncnc4sc(CC(F)(F)F)cc34)CC2)ccc2c1cc(C#N)n2CC(C)N1CCN(S(C)(=O)=O)C(C(N)=O)C1 (stereo not shown) [Compound I-80] | 10 to 50
4 | CNS(=O)(=O)N1CCN([C@@H](C)Cn2c(C#N)cc3c(C)c(CN4CCC(Nc5nc(N)nc6sc(CC(F)(F)F)cc56)CC4)ccc32)CC1 [Compound I-132] | < 10
5 | Cc1c(CN2CCC(Nc3nc(N)nc4sc(CC(F)(F)F)cc34)CC2)ccc2c1cc(C#N)n2C[C@H](C)N1CCN(S(C)(=O)=O)CC1 [Compound I-135] | < 10
6 | Cc1nc(NC2CCN(Cc3ccc4c(cc(C#N)n4C[C@H](C)N4CCN(S(C)(=O)=O)CC4)c3C)CC2)c2cc(CC(F)(F)F)sc2n1 [Compound I-138] | 10 to 50
7 | CNS(=O)(=O)N1CCN([C@@H](C)Cn2c(C#N)cc3c(C)c(CN4CCC(Nc5nc(C)nc6sc(CC(F)(F)F)cc56)CC4)ccc32)CC1 [Compound I-139] | 10 to 50
8 | CNc1nc(NC2CCN(Cc3ccc4c(cc(C#N)n4C[C@H](C)N4CCN(S(C)(=O)=O)CC4)c3C)CC2)c2cc(CC(F)(F)F)sc2n1 [Compound I-151] | < 10
9 | Cc1c(CN2CCC(Nc3ncnc4sc(CC(F)(F)F)cc34)CC2)ccc2c1cc(C#N)n2C[C@H](C)N1CCN(S(C)(=O)=O)[C@H](C(N)=O)C1 [Compound I-163] | < 10
10 | Cc1nc(NC2CCN(Cc3ccc4c(cc(C#N)n4C[C@H](C)N4CCC(S(C)(=O)=O)CC4)c3C)CC2)c2cc(CC(F)(F)F)sc2n1 [Compound I-165] | < 10
11 | CCc1nc(NC2CCN(Cc3ccc4c(cc(C#N)n4C[C@H](C)N4CCN(S(C)(=O)=O)CC4)c3C)CC2)c2cc(CC(F)(F)F)sc2n1 [Compound I-171] | 10 to 50
12 | C[C@@H](Cn1c(C#N)cc2cc(CN3CCC(Nc4nc(N)nc5sc(CC(F)(F)F)cc45)CC3)c(O)cc21)N1CCN(S(C)(=O)=O)CC1 [Compound I-172] | < 10
13 | CCNc1nc(NC2CCN(Cc3ccc4c(cc(C#N)n4C[C@H](C)N4CCN(S(C)(=O)=O)CC4)c3C)CC2)c2cc(CC(F)(F)F)sc2n1 [Compound I-174] | 10 to 50
14 | Cc1c(CN2CCC(Nc3nc(N)nc4sc(CC(F)(F)F)cc34)CC2)ccc2c1cc(C#N)n2C[C@H](C)N1CCN(CC(N)=O)CC1 [Compound I-175] | 10 to 50
15 | CNC(=O)CN1CCN([C@@H](C)Cn2c(C#N)cc3c(C)c(CN4CCC(Nc5nc(N)nc6sc(CC(F)(F)F)cc56)CC4)ccc32)CC1 [Compound I-176] | 10 to 50
16 | CNS(=O)(=O)N1CCN([C@@H](C)Cn2c(C#N)cc3cc(CN4CCC(Nc5nc(N)nc6sc(CC(F)(F)F)cc56)CC4)c(O)cc32)CC1 [Compound I-177] | < 10
17 | Cc1c(CN2CCC(Nc3nc(N)nc4sc(CC(F)(F)F)cc34)CC2)ccc2c1cc(C#N)n2C[C@H](C)N1CCN(CC(=O)N(C)C)CC1 [Compound I-181] | 10 to 50
18 | COc1nc(NC2CCN(Cc3ccc4c(cc(C#N)n4C[C@H](C)N4CCN(S(C)(=O)=O)CC4)c3C)CC2)c2cc(CC(F)(F)F)sc2n1 [Compound I-183] | < 10
19 | CNc1nc(NC2CCN(Cc3ccc4c(cc(C#N)n4C[C@H](C)N4CCC(C)(C#N)CC4)c3C)CC2)c2cc(CC(F)(F)F)sc2n1 [Compound I-199] | < 10
20 | CNc1nc(NC2CCN(Cc3ccc4c(cc(C#N)n4C[C@H](C)N4CCS(=O)(=O)CC4)c3C)CC2)c2cc(CC(F)(F)F)sc2n1 [Compound I-203] | < 10
21 | CNS(=O)(=O)N1CCN([C@@H](C)Cn2c(C#N)cc3c(C)c(CN4CCC(Nc5nc(OC)nc6sc(CC(F)(F)F)cc56)CC4)ccc32)CC1 [Compound I-205] | < 10
22 | CNc1nc(NC2CCN(Cc3ccc4c(cc(C#N)n4C[C@H](C)N4CCC(C)(O)CC4)c3C)CC2)c2cc(CC(F)(F)F)sc2n1 [Compound I-207] | < 10
23 | CNS(=O)(=O)C1CCN([C@@H](C)Cn2c(C#N)cc3c(C)c(CN4CCC(Nc5nc(OC)nc6sc(CC(F)(F)F)cc56)CC4)ccc32)CC1 [Compound I-214] | < 10
24 | CNC(=O)C1CN([C@@H](C)Cn2c(C#N)cc3c(C)c(CN4CCC(Nc5nc(NC)nc6sc(CC(F)(F)F)cc56)CC4)ccc32)CCO1 (stereo partly shown) [Compound I-217] | 10 to 50

System: AM7577 cells
Assay: Serial bleed FACS analysis and survival study in AM7577 mouse model (Example 30)
Conditions: Compound A ~100 or ~150 mg/kg, quizartinib ~3 mg/kg, combination ~100 + ~2 mg/kg, p.o. qd, FIG. 8

Row | Compound | leukemic progression (CD45+/CD38+ blasts, serial bleed FACS)
25 | CC(C)(C)c1cc(NC(=O)Nc2ccc(-c3cn4c(n3)sc3cc(OCCN5CCOCC5)ccc34)cc2)no1 [quizartinib] | evidence of leukemia breakout after 63 days

Same assay, conditions: compared to vehicle, FIG. 9A

Row | Compound | overall survival
26 | CC(C)(C)c1cc(NC(=O)Nc2ccc(-c3cn4c(n3)sc3cc(OCCN5CCOCC5)ccc34)cc2)no1 [quizartinib] | prolonged survival

Same assay, conditions: quizartinib only treatment

Row | Compound | surviving animals
27 | CC(C)(C)c1cc(NC(=O)Nc2ccc(-c3cn4c(n3)sc3cc(OCCN5CCOCC5)ccc34)cc2)no1 [quizartinib] | no surviving animals after 84 days

Biological target: T1, menin-MLL interaction (Homo sapiens, UniProt O00255)
T1 sequence (O00255 1-610): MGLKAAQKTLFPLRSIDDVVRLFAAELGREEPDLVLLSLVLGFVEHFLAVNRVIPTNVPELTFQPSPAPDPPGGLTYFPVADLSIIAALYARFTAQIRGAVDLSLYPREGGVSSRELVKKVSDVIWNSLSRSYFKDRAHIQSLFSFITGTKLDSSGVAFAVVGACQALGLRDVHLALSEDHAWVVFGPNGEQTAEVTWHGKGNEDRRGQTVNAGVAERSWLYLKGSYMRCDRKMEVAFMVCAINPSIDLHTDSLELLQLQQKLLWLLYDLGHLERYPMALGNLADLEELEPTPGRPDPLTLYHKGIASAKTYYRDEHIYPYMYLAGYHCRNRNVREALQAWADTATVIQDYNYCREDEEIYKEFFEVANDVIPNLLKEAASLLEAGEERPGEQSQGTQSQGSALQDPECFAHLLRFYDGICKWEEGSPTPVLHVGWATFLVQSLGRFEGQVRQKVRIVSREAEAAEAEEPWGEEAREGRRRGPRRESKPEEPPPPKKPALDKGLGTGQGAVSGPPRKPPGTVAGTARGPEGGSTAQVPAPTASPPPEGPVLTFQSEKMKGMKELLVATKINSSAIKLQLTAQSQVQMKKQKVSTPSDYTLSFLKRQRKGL
Assay: Fluorescence polarization (FP) competition assay
Assay type: binding
Conditions: read-out: Menin MLL 4-43 IC50

Row | IC50 [nM] | Compound
28 | 250 to 1000 | Cc1c(CN2CCC(Nc3ncnc4sc(CC(F)(F)F)cc34)CC2)ccc2c1cc(C#N)n2CCN1CCC2(CC1)CCN(S(C)(=O)=O)C2 [Compound I-52]

System: LXFE 2734 cells
Assay: Serial bleed FACS analysis and survival study in LXFE 2734 mouse model
Conditions: LXFE 2734 model, compared to vehicle; FIG. 11
Description: Human leukemia cells were detected by FACS biweekly starting from week 2 post-cell inoculation.

Row | Compound | overall survival
29 | CC(C)(C)c1cc(NC(=O)Nc2ccc(-c3cn4c(n3)sc3cc(OCCN5CCOCC5)ccc34)cc2)no1 [quizartinib] | prolonged survival

Same assay, conditions: LXFE 2734 model, quizartinib ~3 mg/kg qd

Row | Compound | surviving animals
30 | CC(C)(C)c1cc(NC(=O)Nc2ccc(-c3cn4c(n3)sc3cc(OCCN5CCOCC5)ccc34)cc2)no1 [quizartinib] | no quizartinib treated animals surviving after 77 days

Same assay, conditions: LXFE 2734 model; Compound A ~150 mg/kg p.o. qd, quizartinib ~3 mg/kg qd; FIG. 10

Row | Compound | leukemic progression (CD45+/CD33+ blasts, FACS)
31 | CC(C)(C)c1cc(NC(=O)Nc2ccc(-c3cn4c(n3)sc3cc(OCCN5CCOCC5)ccc34)cc2)no1 [quizartinib] | evidence of leukemia relapse
